Four molecules from patent publication US11046646B2, “Alkylphenyl compounds” (BRISTOL-MYERS SQUIBB COMPANY, priority 2017, dated 2021) can be followed below.

The target of one experiment is S1P1 (Homo sapiens (Human), UniProt P21453). The experiment can be described thus: Receptor [35S] GTPγS binding assay, S1P1. Format: biochemical. Particulars: for EC50: membranes from S1P1/CHO cells, synthetically prepared phosphorylated compounds; for GTPγS S1P1 EC50 value as compared to Comparative Compound 20: in words. The procedure: (§1) Receptor [^35S] GTPγS Binding Assays:
(§2) Compounds were loaded in a 384 Falcon v-bottom plate (0.5 μL/well in a 11 point, 3-fold dilution). Membranes prepared from S1P1/CHO cells or EDG3-Gal5-bla HEK293T cells (EDG3 equivalent S1P3) were added to the compound plate (40 μL/well, final protein 3 μg/well) with MULTIDROP®. [^35S]GTP (1250 Ci/mmol, Perkin Elmer) was diluted in assay buffer: 20 mM HEPES, pH7.5, 10 mM MgCl2, 150 mM NaCl, 1 mM EGTA(ethylene glycol tetraacetic acid), 1 mM DTT (dithiothreitol), 10 μM GDP, 0.1% fatty acid free BSA, and 10 μg/ml Saponin to 0.4 nM. 40 μL of the [^35S] GTP solution was added to the compound plate with a final concentration of 0.2 nM. The reaction was kept at room temperature for 45 min. At the end of incubation, all the mixtures in the compound plate were transferred to Millipore 384-well FB filter plates via the VELOCITY11® Vprep liquid handler. The filter plate was washed with water 4 times by using the manifold Embla plate washer and dried at 60° C. for 45 min. MicroScint 20 scintillation fluid (30 μL) was added to each well for counting on the Packard TOPCOUNT®. EC50 is defined as the agonist concentration that corresponds to 50% of the Ymax (maximal response) obtained for each individual compound tested.
A smaller value for GTPγS S1P1 EC50 value indicated greater activity for the compound in the GTPγS S1P1 binding assay. Thus the compounds of the present invention may be used in treating, preventing, or curing various S1P1 receptor-related conditions. The compounds have potential use in treating, preventing, or curing autoimmune and inflammatory diseases such as multiple sclerosis, rheumatoid arthritis, inflammatory bowel disease, lupus, psoriasis, or minimizing or reducing rejection of transplanted organs.

The target in a further experiment is S1P3 (EDG3) (Homo sapiens (Human), UniProt Q99500). Description: Receptor [35S] GTPγS binding assay, S1P3. Format: biochemical. Conditions: membranes from EDG3-Gal5-bla HEK293T cells; synthetically prepared phosphorylated compounds. The procedure: as §1, §2
On the technique in general: GTPγS is a poorly hydrolysed GTP analogue; its binding reports G protein activation.

Sequence of S1P3 (EDG3) (Q99500 whole entry): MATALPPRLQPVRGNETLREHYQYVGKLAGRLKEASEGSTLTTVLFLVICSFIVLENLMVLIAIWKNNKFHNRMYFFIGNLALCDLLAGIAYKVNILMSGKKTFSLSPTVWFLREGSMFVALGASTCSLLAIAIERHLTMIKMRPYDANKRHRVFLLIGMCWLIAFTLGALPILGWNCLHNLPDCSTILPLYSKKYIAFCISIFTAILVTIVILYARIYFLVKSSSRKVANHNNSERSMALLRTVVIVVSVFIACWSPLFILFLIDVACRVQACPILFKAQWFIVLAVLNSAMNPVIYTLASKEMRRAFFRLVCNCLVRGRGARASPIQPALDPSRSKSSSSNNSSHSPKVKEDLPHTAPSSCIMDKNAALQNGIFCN
Sequence of S1P1 (P21453 whole entry): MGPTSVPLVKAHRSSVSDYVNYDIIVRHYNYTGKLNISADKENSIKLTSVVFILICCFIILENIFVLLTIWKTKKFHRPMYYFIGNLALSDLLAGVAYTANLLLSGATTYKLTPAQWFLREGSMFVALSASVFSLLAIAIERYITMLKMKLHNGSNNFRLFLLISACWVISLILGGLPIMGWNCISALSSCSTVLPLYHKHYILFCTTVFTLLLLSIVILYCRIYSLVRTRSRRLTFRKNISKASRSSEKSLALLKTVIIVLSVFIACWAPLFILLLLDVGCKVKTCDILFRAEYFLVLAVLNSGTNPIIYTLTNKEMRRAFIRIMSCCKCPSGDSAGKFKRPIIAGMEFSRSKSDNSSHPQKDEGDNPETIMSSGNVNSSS

The EC50 is the concentration giving half of the maximal effect. A lower EC50 goes with a more potent agent. For `CCCCCCCCc1ccc(N2CCC(N)(COP(=O)(O)O)C2)cc1` (stereo not shown) [compound 20, (3-amino-1-(4-octylphenyl)pyrrolidin-3-yl)methyl dihydrogen phosphate, reference compound], the EC50 was 0.384 µM at S1P1 and above 30 µM at S1P3 (EDG3).
For the molecule `CCCCCCCCc1ccc(CN2CCC(N)(COP(=O)(O)O)C2=O)cc1` (stereo not shown) [Example 14, (3-amino-1-(4-octylbenzyl)-2-oxopyrrolidin-3-yl)methyl dihydrogen phosphate], on S1P1, the “GTPγS S1P1 EC50 value as compared to Comparative Compound 20” value was “significant improvement” and the EC50 was determined as 0.041 µM. Further, the EC50 at S1P3 (EDG3) was above 30 µM.
Take `CCCCCCCCc1ccc(N2CCC(N)(COP(=O)(O)O)C2=O)c(C)c1` (stereo not shown) [Example 17, (3-amino-1-(2-methyl-4-octylphenyl)-2-oxopyrrolidin-3-yl)methyl dihydrogen phosphate]: on S1P1, the “GTPγS S1P1 EC50 value as compared to Comparative Compound 20” value is “significant improvement” and the midpoint of the response, the EC50, lay at 0.161 µM. This molecule came in with an EC50 on S1P3 (EDG3) above 60 µM.
For `CCCCCCCCc1ccc(N2CCC(N)(COP(=O)(O)O)C2=O)cc1` (stereo not shown) [Example 18, (3-amino-1-(4-octylphenyl)-2-oxopyrrolidin-3-yl)methyl dihydrogen phosphate], the EC50 at S1P1 is 0.454 µM; on S1P3 (EDG3), above 60 µM.
